Source: patent US6274715A, “Tricyclic erythromycin derivatives” (priority 1997, dated 2001)
In brackets after ≈: the same amount, converted by molar mass.

Assays:
Type in all cases: cell-based
[1] = system: PSEUDOMONAS AERUGINOSA DPHD-2862; experiment: In vitro antibacterial activity, MIC, BHI agar dilution; settings: P. aeruginosa DPHD-2862, unit assumed
ESCHERICHIA COLI JUHL = settings: E. coli JUHL; BHI agar; unit assumed
ESCHERICHIA COLI SS = experiment: In vitro antibacterial activity, MIC, BHI agar dilution; settings: E. coli SS, unit assumed
ESCHERICHIA COLI H560 = experiment: as above; settings: E. coli H560, unit assumed
STR[…] 508 = experiment: as above; settings: S. agalactiae CMX 508, unit assumed
Procedure, shortened: (§1)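 Agar dilution in BHI: plates inoculated with 1:100 dilutions of organisms (1:10 for Micrococcus and Streptococcus), incubated 20-24 h at 35-37° C, then inspected for the lowest inhibitory concentration against a drug-free growth control.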

EN[…] ATCC 8043 = experiment: as above; settings: E. faecium ATCC 8043, unit assumed
Procedure, shortened: as §1

M[…] ATCC 9341 = experiment: as above; settings: M. luteus ATCC 9341, unit assumed
Procedure, shortened: as §1

M[…] ATCC 4698 = experiment: as above; settings: M. luteus ATCC 4698, unit assumed
Procedure, shortened: as §1

[2] = system: PROVIDENCIA STUARTII CMX 640; settings: P. stuartii CMX 640; BHI agar; unit assumed
ESCHERICHIA COLI DC-2 = experiment: In vitro antibacterial activity, MIC, BHI agar dilution; settings: E. coli DC-2, unit assumed
[3] = system: STAPHYLOCOCCUS AUREUS A5177; experiment: as above; settings: S. aureus A5177, unit assumed
[4] = system: STAPHYLOCOCCUS AUREUS CMX 553; experiment: as above; settings: S. aureus CMX 553, unit assumed
ESCHERICHIA COLI KNK 437 = settings: E. coli KNK 437; BHI agar; unit assumed
[5] = system: STREPTOCOCCUS BOVIS A-5169; experiment: In vitro antibacterial activity, MIC, BHI agar dilution; settings: S. bovis A-5169, unit assumed
[6] = system: MYCOBACTERIUM SMEGMATIS ATCC 114; experiment: as above; settings: M. smegmatis ATCC 114, unit assumed
[7] = system: STAPHYLOCOCCUS AUREUS 1775; experiment: as above; settings: S. aureus 1775, unit assumed
[8] = system: STAPHYLOCOCCUS AUREUS A-5278; experiment: as above; settings: S. aureus A-5278, unit assumed
[9] = system: STAPHYLOCOCCUS AUREUS ATCC 6538P; experiment: as above; settings: S. aureus ATCC 6538P, 35-37° C., 20 to 24 hours, unit assumed
[10] = system: PSEUDOMONAS AERUGINOSA 5007; experiment: as above; settings: P. aeruginosa 5007, unit assumed
[11] = system: ENTEROBACTER AEROGENES ATCC 13048; experiment: as above; settings: E. aerogenes ATCC 13048, unit assumed
[12] = system: KLEBSIELLA PNEUMONIAE ATCC 8045; experiment: as above; settings: K. pneumoniae ATCC 8045, unit assumed
[13] = system: STAPHYLOCOCCUS AUREUS CMX 642A; experiment: as above; settings: S. aureus CMX 642A, unit assumed
[14] = system: PSEUDOMONAS AERUGINOSA K799/WT; experiment: as above; settings: P. aeruginosa K799/WT, unit assumed
[15] = system: STAPHYLOCOCCUS EPIDERMIDIS 3519; settings: S. epidermidis 3519; BHI agar; unit assumed
CANDIDA ALBICANS CCH 442 = experiment: In vitro antibacterial activity, MIC, BHI agar dilution; settings: C. albicans CCH 442, unit assumed
[16] = system: STREPTOCOCCUS PYOGENES PIU 2548; experiment: as above; settings: S. pyogenes PIU 2548, unit assumed
[17] = system: STREPTOCOCCUS PYOGENES 930; experiment: as above; settings: S. pyogenes 930, unit assumed
[18] = system: PSEUDOMONAS AERUGINOSA DPHD-5263; experiment: as above; settings: P. aeruginosa DPHD-5263, unit assumed
[19] = system: STREPTOCOCCUS PYOGENES EES61; experiment: as above; settings: S. pyogenes EES61, unit assumed
[20] = system: STAPHYLOCOCCUS AUREUS NCTC10649M; experiment: as above; settings: S. aureus NCTC10649M, unit assumed
[21] = system: PSEUDOMONAS AERUGINOSA BMH10; experiment: as above; settings: P. aeruginosa BMH10, unit assumed
PSEUDOMONAS CEPACIA 296I = experiment: as above; settings: P. cepacia 296I, unit assumed
[22] = system: PSEUDOMONAS AERUGINOSA K799/61; experiment: as above; settings: P. aeruginosa K799/61, unit assumed

| Compound | MIC [1] [mg/L] | MIC (ESCHERICHIA COLI JUHL) [mg/L] | MIC (ESCHERICHIA COLI SS) [mg/L] | MIC (ESCHERICHIA COLI H560) [mg/L] | MIC (STR[…] 508) [mg/L] | MIC (EN[…] ATCC 8043) [mg/L] | MIC (M[…] ATCC 9341) [mg/L] | MIC (M[…] ATCC 4698) [mg/L] | MIC [2] [mg/L] | MIC (ESCHERICHIA COLI DC-2) [mg/L] | MIC [3] [mg/L] | MIC [4] [mg/L] | MIC (ESCHERICHIA COLI KNK 437) [mg/L] | MIC [5] [mg/L] | MIC [6] [mg/L] | MIC [7] [mg/L] | MIC [8] [mg/L] | MIC [9] [mg/L] | MIC [10] [mg/L] | MIC [11] [mg/L] | other results |
| --- | --- | --- | --- | --- | --- | --- | --- | --- | --- | --- | --- | --- | --- | --- | --- | --- | --- | --- | --- | --- | --- |
| CC[C@H]1OC(=O)[C@H](C)C(=O)[C@H](C)[C@@H](O[C@@H]2O[C@H](C)C[C@H](N(C)C)[C@H]2O)[C@](C)(OC)C[C@@H](C)C2=N[C@H](COCc3ccc(Br)cc3)CN3C(=O)O[C@@]1(C)[C@H]3[C@H]2C [Example 103] | > 100 | 100 (≈ 119 µM) | 0.39 (≈ 0.466 µM) | 100 (≈ 119 µM) | ≤ 0.005 | ≤ 0.005 | ≤ 0.005 | ≤ 0.005 | > 100 | 100 (≈ 119 µM) | 0.05 (≈ 0.0597 µM) | 0.05 (≈ 0.0597 µM) | > 100 | ≤ 0.005 | 0.2 (≈ 0.239 µM) | 100 (≈ 119 µM) | 100 (≈ 119 µM) | 0.05 (≈ 0.0597 µM) | > 100 | > 100 | MIC [12]: > 100 mg/L; MIC [13]: 0.05 mg/L (≈ 0.0597 µM); MIC [14]: > 100 mg/L; MIC [15]: 0.05 mg/L (≈ 0.0597 µM); MIC (CANDIDA ALBICANS CCH 442): 50 mg/L (≈ 59.7 µM); MIC [16]: 0.05 mg/L (≈ 0.0597 µM); MIC [17]: 25 mg/L (≈ 29.9 µM); MIC [18]: > 100 mg/L; MIC [19]: ≤ 0.005 mg/L; MIC [20]: 0.05 mg/L (≈ 0.0597 µM); MIC [21]: > 100 mg/L; MIC (PSEUDOMONAS CEPACIA 296I): 50 mg/L (≈ 59.7 µM); MIC [22]: 0.78 mg/L (≈ 0.932 µM) |
| CC[C@H]1OC(=O)[C@H](C)C(=O)[C@H](C)[C@@H](O[C@@H]2O[C@H](C)C[C@H](N(C)C)[C@H]2O)[C@](C)(OC)C[C@@H](C)C2=NCC(COC(=O)c3ccc(Cl)cc3)N3C(=O)O[C@@]1(C)[C@H]3[C@H]2C (stereo partly drawn) [Example 141] | > 100 | 50 (≈ 62 µM) | 0.78 (≈ 0.967 µM) | 12.5 (≈ 15.5 µM) | 0.02 (≈ 0.0248 µM) | 0.02 (≈ 0.0248 µM) | 0.01 (≈ 0.0124 µM) | 0.1 (≈ 0.124 µM) | > 100 | 50 (≈ 62 µM) | 0.1 (≈ 0.124 µM) | 0.1 (≈ 0.124 µM) | 50 (≈ 62 µM) | ≤ 0.005 | 0.2 (≈ 0.248 µM) | 50 (≈ 62 µM) | 50 (≈ 62 µM) | 0.1 (≈ 0.124 µM) | > 100 | > 100 | MIC [12]: 100 mg/L (≈ 124 µM); MIC [13]: 0.1 mg/L (≈ 0.124 µM); MIC [14]: > 100 mg/L; MIC [15]: 0.1 mg/L (≈ 0.124 µM); MIC (CANDIDA ALBICANS CCH 442): > 100 mg/L; MIC [16]: 0.2 mg/L (≈ 0.248 µM); MIC [17]: 50 mg/L (≈ 62 µM); MIC [18]: > 100 mg/L; MIC [19]: ≤ 0.005 mg/L; MIC [20]: 0.1 mg/L (≈ 0.124 µM); MIC [21]: 100 mg/L (≈ 124 µM); MIC (PSEUDOMONAS CEPACIA 296I): 25 mg/L (≈ 31 µM); MIC [22]: 1.56 mg/L (≈ 1.93 µM) |
| CC[C@H]1OC(=O)[C@H](C)C(=O)[C@H](C)[C@@H](O[C@@H]2O[C@H](C)C[C@H](N(C)C)[C@H]2O)[C@](C)(OC)C[C@@H](C)C2=NC3CNCC3N3C(=O)O[C@@]1(C)[C@H]3[C@H]2C (stereo partly drawn) [Example 109] | > 100 | 25 (≈ 36.8 µM) | 0.2 (≈ 0.295 µM) | 6.2 (≈ 9.13 µM) | 0.1 (≈ 0.147 µM) | 0.1 (≈ 0.147 µM) | 0.05 (≈ 0.0737 µM) | 0.2 (≈ 0.295 µM) | > 100 | 12.5 (≈ 18.4 µM) | 0.39 (≈ 0.574 µM) | 0.78 (≈ 1.15 µM) | 25 (≈ 36.8 µM) | 0.05 (≈ 0.0737 µM) | 3.1 (≈ 4.57 µM) | > 100 | > 100 | 0.39 (≈ 0.574 µM) | > 100 | 25 (≈ 36.8 µM) | MIC [12]: 25 mg/L (≈ 36.8 µM); MIC [13]: 0.39 mg/L (≈ 0.574 µM); MIC [14]: > 100 mg/L; MIC [15]: 0.39 mg/L (≈ 0.574 µM); MIC (CANDIDA ALBICANS CCH 442): > 100 mg/L; MIC [16]: 0.78 mg/L (≈ 1.15 µM); MIC [17]: > 100 mg/L; MIC [18]: > 100 mg/L; MIC [19]: 0.05 mg/L (≈ 0.0737 µM); MIC [20]: 0.39 mg/L (≈ 0.574 µM); MIC [21]: 50 mg/L (≈ 73.7 µM); MIC (PSEUDOMONAS CEPACIA 296I): > 100 mg/L; MIC [22]: 0.39 mg/L (≈ 0.574 µM) |
